Test [1] concerns the target T1, 5HT2 receptors (Rattus norvegicus, UniProt P14842).
T1 construct: 5HT2 receptors were measured in a rat frontal cortex membrane fraction; from tissue; host or cells: Wistar rat frontal cortex membrane fraction
The test can be described thus: 5HT2 binding in rat frontal cortex (radioligand binding, [3H]ketanserin). The settings on record: rat frontal cortex membrane fraction; 1 nM [3H]ketanserin; pIC50 = −log IC50, IC50 in M. As for the experimental part: (§1) 5HT2 receptors were measured by radioligand binding studies either in homogenates from rat brains or in a membranes fraction prepared from L929sA cells (mouse fibro carcinoma cells), stably transfected with human 5HT2A receptor cDNA.
5HT2 Binding in Rat Frontal Cortex
5HT2 receptors were measured in a rat frontal cortex membrane fraction. Herefore wistar rats were killed by decapitation, brains were removed and frontal cortex was dissected. The frontal cortex was homogenized in Tris-HCL buffer 50 mM pH7.7. The homogenate was centrifuged at 23.000 g for 10 minutes. The resulting pellet was washed twice by resuspension and recentrifugation and the pellet was finally suspended in Tris-HCL buffer 50 mM pH7.7 in a dilution of 100 (vol/wet weight of tissue). 400 μl of the homogenate was incubated with 1 nM [^3H]ketanserin in a total incubation volume of 0.5 ml for 30 minutes at 37° C. The incubation was stopped by rapid filtration using a manual filtration manifold. The filters were rinsed twice with ice-cold buffer and were counted in a liquid scintillation counter. Non-specific binding was determined in the presence of 1 μM methysergide.
(§2) Counting data from assays in the presence of test compound were automatically expressed as percent of total binding measured in the absence of test compound. Therefrom, the pIC50 (−log IC50)-values (IC50=concentration in M inhibiting 50% of the specific radioligand binding or neurotransmitter uptake) were derived and are listed in Table 9 (a “-” means “not measured”).

Test [2] has as its target T2, human 5HT2A receptor (Homo sapiens, UniProt P28223).
T2 construct: expressed in transfected cells; host or cells: L929sA cells (mouse fibro carcinoma cells), stably transfected, induced with m-interferon-b
The test can be described thus: 5HT2A binding in L929sA cells (radioligand binding, 125I ligand). Particulars: membranes of L929sA cells expressing human 5HT2A receptors; 0.1 nM 125I radioligand; pIC50 = −log IC50, IC50 in M. As for the experimental part: as §1
5HT2A Binding in L929sA Cells
L929sA cells expressing human 5HT2A receptors were cultured in Petri dishes in DMEM medium (Gibco cat.nr. 41965-039) enriched with 5% heat inactivated fetal calf serum and in the presence of penicillin and streptomycin sulphate. 24 h before collection, cells were induced with m-interferon-b (1000 U/ml medium). Cells were collected by scrapping and centrifugation at low speed (5 minutes at 1500 g). The cells were homogenized and centrifuged for 10 minutes at 23.000 g. The resulting pellet was diluted in Tris-HCl 50 mM pH 7.7 and stored at −70° C. On the day of the experiment, a vial was thawed and diluted in Tris-HCl buffer. 5HT2A receptors are labeled with 0.1 nM [^125I] 4-amino-N-[1-[3-(4-fluorophenoxy)propyl]-4-methyl-4-piperidinyl]-2-methoxybenzamide dihydrate. Membranes (0.2 ml) were incubated with the radioligand for 60 minutes at 37° C. in a total volume of 0.25 ml. The reaction was stopped by rapid filtration and the filter rounds were counted in an auto-gamma spectrophotometer.
as §2

pIC50: −log10 of the molar value.

T1 sequence (P14842 whole entry): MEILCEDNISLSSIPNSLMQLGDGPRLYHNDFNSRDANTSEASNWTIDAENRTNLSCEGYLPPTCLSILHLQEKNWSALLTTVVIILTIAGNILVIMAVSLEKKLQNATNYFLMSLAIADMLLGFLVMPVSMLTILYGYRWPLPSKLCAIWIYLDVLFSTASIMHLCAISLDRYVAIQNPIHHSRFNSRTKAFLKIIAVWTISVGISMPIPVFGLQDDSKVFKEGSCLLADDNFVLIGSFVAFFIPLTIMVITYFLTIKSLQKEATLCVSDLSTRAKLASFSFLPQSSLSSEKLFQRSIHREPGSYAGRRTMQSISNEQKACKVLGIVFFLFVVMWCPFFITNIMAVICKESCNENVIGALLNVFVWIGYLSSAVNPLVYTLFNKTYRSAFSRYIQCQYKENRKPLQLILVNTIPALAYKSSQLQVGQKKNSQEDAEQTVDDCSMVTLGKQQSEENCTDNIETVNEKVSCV
T2 sequence (P28223 whole entry): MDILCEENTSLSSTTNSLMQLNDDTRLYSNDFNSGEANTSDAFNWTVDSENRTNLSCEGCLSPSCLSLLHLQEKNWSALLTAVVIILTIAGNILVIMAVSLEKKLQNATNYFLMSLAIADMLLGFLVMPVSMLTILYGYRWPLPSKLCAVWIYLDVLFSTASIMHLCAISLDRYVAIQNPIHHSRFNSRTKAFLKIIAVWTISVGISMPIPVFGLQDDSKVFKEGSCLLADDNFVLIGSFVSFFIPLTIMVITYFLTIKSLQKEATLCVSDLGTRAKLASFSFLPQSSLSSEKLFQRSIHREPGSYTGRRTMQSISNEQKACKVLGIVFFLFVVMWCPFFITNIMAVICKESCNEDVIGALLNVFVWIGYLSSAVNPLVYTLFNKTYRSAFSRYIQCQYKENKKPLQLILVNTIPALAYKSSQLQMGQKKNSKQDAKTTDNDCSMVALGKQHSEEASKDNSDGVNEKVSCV

Broadly, the pIC50 is −log10 of the IC50, conventionally taken in molar units. Higher therefore signals a low IC50. As for `Cc1nc2n(c(=O)c1CCN1CCc3[nH]c4ccc(F)cc4c3C1)CCCS2` [Compound 2, 7-[2-(8-fluoro-1,3,4,5-tetrahydro-2H-pyrido[4,3-b]indol-2-yl)ethyl]-3,4-dihydro-8-methyl-2H,6H-pyrimido[2,1-b][1,3]-thiazin-6-one], in test [1], the pIC50 is 7.44.

For `COc1ccc2[nH]c3c(c2c1)CN(CCc1c(C)nc2ccccn2c1=O)CC3` [Compound 53], the pIC50 in test [2] was 7.63; in test [1], 7.75.

In test [2], `Cc1nc2c(Cl)cc(C(F)(F)F)cn2c(=O)c1CCN1CCc2[nH]c3cc(Cl)ccc3c2C1` [Compound 15] showed a pIC50 of 5.00.

`Cc1nc2scc(C)n2c(=O)c1CCN1CCc2[nH]c3ccc(F)cc3c2C1` [Compound 5] gave a pIC50 in test [2] of 8.51.

With `Cc1nc2n(c(=O)c1CCN1CCc3c(c4cc(F)ccc4n3-c3ccc(F)cc3)C1)CCS2` [Compound 67], the negative logarithm of the IC50 (pIC50) was 8.36 in test [2] and 8.74 in test [1].

In turn, `Cc1nc2ccc(Br)cn2c(=O)c1CCN1CCc2[nH]c3cc(Cl)ccc3c2C1` [Compound 14] gave a pIC50 in test [2] of 6.38.

For `Cc1ccc2[nH]c3c(c2c1)CN(CCc1c(C)nc2scc(C)n2c1=O)CC3` [Compound 32], the pIC50 in test [2] was 8.35; in test [1], 9.40.

For the molecule `Cc1nc2n(c(=O)c1CCN1CCc3[nH]c4cc(Cl)ccc4c3C1)CCCC2` [Compound 10], the pIC50 in test [2] was 6.34; in test [1] it was 7.59.

Consider `Cc1nc2n(c(=O)c1CCN1CCc3[nH]c4ccc(Cl)cc4c3C1)CCCS2` [Compound 24], for which the values for the pIC50 in test [2] and in test [1] were 8.07 and 8.71, respectively.

In test [1], `Cc1ccc2[nH]c3c(c2c1)CN(CCc1c(C)nc2n(c1=O)CCCC2)CC3` [Compound 35] showed a pIC50 of 8.43.

For the molecule `Cc1ccc2[nH]c3c(c2c1)CN(CCc1c(C)nc2sccn2c1=O)CC3` [Compound 30], the pIC50 in test [2] was 8.08; in test [1] it was 8.79.

In turn, `COc1cccn2c(=O)c(CCN3CCc4[nH]c5cc(Cl)ccc5c4C3)c(C)nc12` [Compound 20, 3-[2-(7-chloro-1,3,4,5-tetrahydro-2H-pyrido[4,3-b]indol-2-yl)ethyl]-9-methoxy-2-4-H-pyrido[1,2-a]pyrimidin-4-one] gave a negative-log IC50 (pIC50) in test [2] of 6.50.

Take `Cc1nc2ccccn2c(=O)c1CCN1CCc2[nH]c3ccc(F)cc3c2C1` [Compound 1]: the pIC50 in test [2] was 7.88; in test [1], 8.41.

As to `Cc1nc2n(c(=O)c1CCN1CCc3[nH]c4ccccc4c3C1)CCS2` [Compound 41], the pIC50 in test [1] is 7.84.

Take `Cc1nc2ccccn2c(=O)c1CCN1CCc2[nH]c3cc(Cl)ccc3c2C1` [Compound 9]: the pIC50 in test [2] was 7.24; in test [1], 8.02.

`Cc1nc2sccn2c(=O)c1CCN1CCc2[nH]c3ccc(F)cc3c2C1` [Compound 6]: the pIC50 was 8.19 in test [2] and 9.00 in test [1].

Consider `Cc1nc2scc(C)n2c(=O)c1CCN1CCc2[nH]c3cc(Cl)ccc3c2C1` [Compound 8], for which the pIC50 in test [2] is 8.01; in test [1], 8.37.

Consider `Cc1nc2ccccn2c(=O)c1CCN1CCc2c(c3ccccc3n2Cc2ccccc2)C1` [Compound 69], for which the pIC50 in test [1] was 7.95.

`Cc1nc2ccc(Cl)cn2c(=O)c1CCN1CCc2[nH]c3cc(Cl)ccc3c2C1` [Compound 17] had a negative logarithm of the IC50 (pIC50) in test [2] of 6.60.

For the molecule `Cc1nc2ccccn2c(=O)c1CCN1CCc2[nH]c3ccccc3c2C1` [Compound 37], the pIC50 in test [2] was 7.35; in test [1], 8.49.

As to `Fc1ccc2[nH]c3c(c2c1)CN(CCCCNc1nc2ccccc2s1)CC3` [Compound 108, N-2-benzothiazolyl-8-fluoro-1,3,4,5,-tetrahydro-2H-pyrido[4,3-b]indole-2-butanamine], the pIC50 in test [1] is 6.26.

Take `Cc1ccc2[nH]c3c(c2c1)CN(CCc1c(C)nc2n(c1=O)CCCS2)CC3` [Compound 33]: in test [1], the pIC50 was 8.35.

With `Cc1ccn2c(=O)c(CCN3CCc4[nH]c5cc(Cl)ccc5c4C3)c(C)nc2c1` [Compound 22], the negative-log IC50 (pIC50) in test [2] was 6.20.

`Cc1nc2sccn2c(=O)c1CCN1CCc2[nH]c3ccc(Cl)cc3c2C1` [Compound 25] showed a negative-log IC50 (pIC50) in test [2] of 8.48.

In turn, `Cc1nc2n(c(=O)c1CCN1CCc3[nH]c4ccc(Cl)cc4c3C1)CCS2` [Compound 26] gave a pIC50 in test [2] of 8.21.

Turning to `Cc1nc2c(C)cccn2c(=O)c1CCN1CCc2[nH]c3cc(Cl)ccc3c2C1` [Compound 13], the pIC50 in test [2] was 5.83.

With `Cc1nc2n(c(=O)c1CCN1CCc3[nH]c4ccc(Cl)cc4c3C1)CCCC2` [Compound 27], in test [1], the pIC50 was 8.55.

With `Cc1nc2scc(C)n2c(=O)c1CCN1CCc2[nH]c3ccc(Cl)cc3c2C1` [Compound 23], the values for the negative logarithm of the IC50 (pIC50) in test [2] and in test [1] were 8.63 and 9.00, respectively.

In test [2], `Cc1ccc2nc(C)c(CCN3CCc4[nH]c5cc(Cl)ccc5c4C3)c(=O)n2c1` [Compound 16] had a pIC50 of 6.90.

In the case of `Cc1cc(C)n2c(=O)c(CCN3CCc4[nH]c5cc(Cl)ccc5c4C3)c(C)nc2c1.O=C(O)/C=C/C(=O)O` [Compound 18], in test [2], the 5HT2A-binding amounted to 5.6.

In turn, `Cc1ccc2[nH]c3c(c2c1)CN(CCc1c(C)nc2n(c1=O)CCCC2)CC3` [Compound 36] gave a pIC50 in test [2] of 6.50.

The molecule `Cc1nc2n(c(=O)c1CCN1CCc3[nH]c4ccc(F)cc4c3C1)CCCC2` [Compound 4] showed a negative-log IC50 (pIC50) in test [1] of 7.90.

In turn, `Cc1nc2n(c(=O)c1CCN1CCc3[nH]c4cc(Cl)ccc4c3C1)CCCS2` [Compound 11] gave a negative-log IC50 (pIC50) in test [2] of 6.24.

As for `Cc1nc2scc(C)n2c(=O)c1CCN1CCc2[nH]c3ccccc3c2C1` [Compound 39], the negative-log IC50 (pIC50) in test [2] is 8.30; in test [1], 8.58.

With `Cc1nc2ccccn2c(=O)c1CCN1CCc2[nH]c3ccc(Cl)cc3c2C1` [Compound 28], the pIC50 in test [2] was 8.12; in test [1], 8.91.

In test [2], `Cc1nc2scc(C)n2c(=O)c1CCN1CCc2c(c3cc(F)ccc3n2-c2ccc(F)cc2)C1` [Compound 68] showed a pIC50 of 8.18.

`Cc1nc2n(c(=O)c1CCN1CCc3c(c4ccccc4n3-c3ccccc3)C1)CCCC2` [Compound 89] gave a pIC50 in test [2] of 8.16.

As for `Cc1nc2sccn2c(=O)c1CCN1CCc2[nH]c3ccccc3c2C1` [Compound 38], the values for the pIC50 in test [2] and in test [1] were 7.90 and 8.09, respectively.

On to `Cc1nc2sccn2c(=O)c1CCN1CCc2[nH]c3cc(Cl)ccc3c2C1` [Compound 7], for which the pIC50 was 7.64 in test [2] and 8.12 in test [1].

In the case of `Cc1nc2n(c(=O)c1CCN1CCc3[nH]c4cc(Cl)ccc4c3C1)CCS2` [Compound 12], the pIC50 in test [2] was 6.21.

The molecule `Cc1nc2n(c(=O)c1CCN1CCc3c(c4ccccc4n3-c3ccccc3)C1)CCS2` [Compound 86] gave a pIC50 in test [2] of 8.34.

As to `COc1ccc2[nH]c3c(c2c1)CN(CCc1c(C)nc2n(c1=O)CCCC2)CC3` [Compound 52], the pIC50 in test [2] is 7.31; in test [1] it was 7.54.

The molecule `Cc1nc(N)n(C)c(=O)c1CCN1CCc2[nH]c3ccccc3c2C1` [Compound 100] had a negative logarithm of the IC50 (pIC50) in test [1] of 8.30.

The values above are taken from patent US6506768B2, “Tetrahydro γ-carbolines” (Janssen Pharmaceutica N.V., priority 1997, dated 2003).
